107 compounds from PubChem BioAssay AID463178 (University of Pittsburgh Molecular Library Screening Center, 2010) can be followed below.

The source made the active and inactive calls.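 How the source made its calls: active means IC50 below a set limit in both duplicate runs and mean IC50 below a set limit; inconclusive means IC50 above a set limit in only one run; inactive means IC50 above a set limit in both runs and mean.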

The test system of the assay is Jurkat FADD-/- TNF-alpha necroptosis, CellTiter-Glo ATP, 24 h. The assay can be described thus: inhibitors of TNF-alpha triggered necroptosis, potency, dose response, cell-based, Jurkat FADD-/-, duplicate IC50 (AID 463178).

On to `CN=C(Cc1ccccc1)C1=C(O)CC(C)(C)CC1=O`, for which the IC50 – broadly, the concentration needed to halve the response being measured – was 4.76 µM.

For `S=C(Nc1ccccc1)N1N=CCC1c1ccccc1` (configuration not stated), the IC50 is 7.65 µM. Then `O=C(Nc1ccccc1)N1N=CCC1c1ccccc1` (configuration not stated), with 1.48 µM. For `CCC(C)c1ccc(O)c(NC(=O)c2cncc(Br)c2)c1` (configuration not stated) the value was > 20 µM (inactive). Consider `Cc1nnsc1C(=O)NCc1c(F)cccc1Cl`, for which the IC50 was 7.64 µM. For `CC(=O)Nc1ccn(Cc2c(F)cccc2Cl)n1` the value was 3.52 µM; for `O=S(=O)(c1cccc2cccnc12)N1CCN(c2ccc(F)cc2)CC1`, > 20 µM (inactive); for `O=C(c1ccc([N+](=O)[O-])cc1)N1CCSC1c1ccccc1Cl` (configuration not stated), > 20 µM (inactive).

Consider `Cc1cc(N/N=C/c2ccncc2)nc2ccccc12`, for which the IC50 was > 20 µM (inactive). On to `O=C(CSCc1ccc([N+](=O)[O-])cc1)NC1CCCCCC1`, for which the half-maximal inhibitory concentration (IC50) was 10 µM. For `O=C1CC(c2ccccc2)C(=O)N1c1cccc(O)c1` (configuration not stated) the value was 12.9 µM. Then `Cc1cnc(NC(=O)C2COc3ccccc3O2)s1` (configuration not stated), with > 20 µM (inactive); and `C=C(C)CSc1nnc2n(Cc3ccccc3)c(=O)c3c4c(sc3n12)CCC4`, with > 20 µM (inactive); and `O=[N+]([O-])c1ccc(Nc2ccccc2F)nc1`, with 15.5 µM. As for `O=C(Nc1ccc(Cl)cn1)C1COc2ccccc2O1` (configuration not stated), the IC50 is > 20 µM (inactive). Take `Cc1ccc(Oc2ccccc2/C=C2\SC(=O)N(C)C2=O)cc1`: the IC50 is > 20 µM (inactive). Take `COc1ccc(-n2c(C)nc3sc4c(c3c2=O)CCC4)cc1`: the half-maximal inhibitory concentration (IC50) was 4.17 µM. Then `Cc1ccc2[nH]c3c(c2c1)CCc1cn[nH]c1-3`, with 1.14 µM; and `Clc1ccc2[nH]c3c(c2c1)CCc1cn[nH]c1-3`, with 5.28 µM; and `O=[N+]([O-])c1ccc(Nc2ccc(Cl)cc2)nc1`, with > 20 µM (inactive). Then `O=C1NC(Cc2c[nH]c3ccccc23)C(=O)N1CCOc1ccc(F)cc1` (configuration not stated), with 10 µM; and `O=C(Nc1cccc(Cl)c1)N1N=CCC1c1ccccc1` (configuration not stated), with 1.28 µM.

Take `O=C(CN1CCN(C(c2ccccc2)c2ccccc2)CC1)N1N=CCC1c1ccccc1` (configuration not stated): the IC50 was > 20 µM (inactive). For the compound `O=C(Cn1cnc2ccc(Br)cc2c1=O)c1cccs1`, the IC50 was > 20 µM (inactive).

For the compound `Cc1cnc(NC(=O)C2(c3ccccc3)CC2)s1`, the IC50 was > 20 µM (inactive).

Consider `Brc1ccc(COn2ccnc2)cc1`, for which the IC50 was 6.31 µM. For `CC(=O)N(CC1CCCO1)c1nnc(-c2cnccn2)s1` (configuration not stated) the value was 5.94 µM; for `COC(C(=O)Nc1cccc(F)c1)c1ccccc1` (configuration not stated), 6.43 µM; for `O=S(=O)(Nc1ccccc1)c1ccc2c(c1)CCO2`, 9.75 µM. On to `COC(C(=O)Nc1ccc(Br)cc1F)c1ccccc1` (configuration not stated), for which the IC50 was 10.7 µM. For `CC(=O)Nc1ccc(/C=N/Nc2nc3ccccc3s2)cc1` the value was > 20 µM (inactive).

Take `CCn1c(O)c(C=NCc2ccccc2)sc1=S`: the IC50 was > 20 µM (inactive). With `COc1ccc(-c2nc3c(-c4ccccc4)cnn3cc2C)cc1F`, the IC50 was > 20 µM (inactive). As to `O=C(Cn1cnc2ccc(Cl)cc2c1=O)c1cccs1`, the IC50 is > 20 µM (inactive). For `COc1ccc(NC(=O)C(OC)c2ccccc2)cc1Cl` (configuration not stated) the value was 12 µM.

For `O=C(O)c1ccc(/C=N/Nc2ccc(C(F)(F)F)cn2)cc1`, the half-maximal inhibitory concentration (IC50) is 6.32 µM. Turning to `CC(Nc1nc(-c2ccc3c(c2)NC(=O)CO3)cs1)c1ccccc1` (configuration not stated), the IC50 was > 20 µM (inactive). As for `CC(=O)N(c1ccccc1)c1nnc(-c2cnc(C)cn2)s1`, the IC50 was 10.6 µM.

Regarding `Clc1ccc(C2=NNC(=NCc3ccccc3)SC2)cc1`, the IC50 was > 20 µM (inactive). For `O=C(NCc1c(Cl)cccc1Cl)c1ccc2nnsc2c1` the value was > 20 µM (inactive). With `O=C(CSc1ccc(Cl)cc1)N1N=CCC1c1ccccc1` (configuration not stated), the IC50 was 16.4 µM. For `Cc1ccc(NC(=O)C2COc3ccccc3O2)nc1` (configuration not stated) the value was 10 µM. For `Cc1nn(Cc2ccccc2)c(N)c1C#N` the value was 9.44 µM; for `O=C(CSCc1ccc([N+](=O)[O-])cc1)NC1CC2CCC1C2` (configuration not stated), 13.6 µM. Then `O=C(CSc1nnnn1-c1ccccc1)N1N=CCC1c1ccccc1` (configuration not stated), with 6.27 µM; and `COc1ccc(/C=N/Nc2ccccn2)cc1OC`, with > 20 µM (inactive). In the case of `Cc1ccc(NC(=O)CSCc2ccc(F)cc2)cc1`, the IC50 was > 20 µM (inactive). Consider `O=[N+]([O-])c1ncn(Cc2ccccc2Cl)n1`, for which the 50% inhibitory concentration (IC50) was 2.51 µM.

As to `c1csc(Cc2nc3ccccc3[nH]2)c1`, the 50% inhibitory concentration (IC50) was 8.85 µM. For `Cc1csc(Nc2ccc(Cl)cc2)[n+]1-c1ccc(Cl)cc1` the value was > 20 µM (inactive); for `O=C(Nc1ncc(Cc2ccccc2)s1)C1COc2ccccc2O1` (configuration not stated), > 20 µM (inactive). Then `O=C(C1=NNCC1c1ccccc1)C1CO1` (configuration not stated), with 4.94 µM; and `COC(=O)c1ccn(Cc2ccccc2Cl)n1`, with 0.881 µM. `O=[N+]([O-])c1ccc(Nc2ccc(F)cc2)nc1`: the IC50 is 14.6 µM. As for `O=C(Nc1cccc2ccccc12)N1N=CCC1c1ccccc1` (configuration not stated), the IC50 was > 20 µM (inactive).

As for `COc1ccc(C2CN=NC2C(=O)c2ccccc2)cc1` (configuration not stated), the IC50 was 16.4 µM. For `Cc1ccc(C)c(C2=NNC(=NCc3ccccc3)SC2)c1` the value was 15.2 µM; for `Fc1ccc(C2=NNC(=NCc3ccccc3)SC2)cc1F`, > 20 µM (inactive). Then `CN(CC1CCCO1)S(=O)(=O)c1ccc(C(=O)Nc2nccs2)cc1` (configuration not stated), with 12.9 µM; and `O=C(CSc1nnc2n1CCCN2C(=S)Nc1ccc(Cl)cc1)c1ccccc1`, with > 20 µM (inactive).

As for `O=C1NC(=Nc2ccccc2)SC1Cc1cccc(Cl)c1Cl` (configuration not stated), the IC50 is > 20 µM (inactive). For `O=[N+]([O-])c1ccc(Nc2cccc(F)c2)nc1`, the IC50 was 19.6 µM. Then `COc1ccc(-n2c(C)nc3sc4c(c3c2=O)CCCC4)cc1`, with 13.9 µM; and `O=C(Nc1ccc(Cl)cc1)N1N=CCC1c1ccccc1` (configuration not stated), with 11.6 µM. Then `COc1ccc(/C=C2\N=C(SC)NC2=O)cc1`, with > 20 µM (inactive); and `COc1ccc(-n2cnc3cc(NS(=O)(=O)c4ccccc4)ccc32)cc1`, with > 20 µM (inactive); and `c1ccc(CSc2nnc(-c3ccco3)o2)cc1`, with 17.3 µM. Consider `O=C(NNc1c(Cl)cccc1Cl)C1CCC1`, for which the 50% inhibitory concentration (IC50) is 9.85 µM. Turning to `O=[N+]([O-])c1ccc(Nc2ccccc2)nc1`, the IC50 was 15.3 µM. Then `Cc1ccc(Cn2cnc3sc4c(c3c2=O)CCC4)c(C)c1`, with > 20 µM (inactive). For the compound `O=C(CSC(=S)N1CCOCC1)N1N=CCC1c1ccccc1` (configuration not stated), the half-maximal inhibitory concentration (IC50) was 9.41 µM. For `O=C1c2ccsc2SCCN1Cc1ccccc1` the value was 6.07 µM; for `N#CCSc1nc2sc3c(c2c(=O)n1C1CCCCC1)CCCC3`, > 20 µM (inactive).

For the compound `Cc1ccc(SCC(=O)N2N=CCC2c2ccccc2)cc1` (configuration not stated), the IC50 was 11.8 µM. Consider `Cc1csc(Nc2ccccc2)[n+]1-c1ccccc1`, for which the IC50 was > 20 µM (inactive). Then `Cc1ccc(CN2CCSc3sccc3C2=O)cc1`, with 9.28 µM. Then `CC(=O)OC(C(=O)NC1CCCCC1)c1ccc(Cl)c(Cl)c1` (configuration not stated), with > 20 µM (inactive). Turning to `Cc1ccc(C2CC(=O)NC(SCC(=O)Nc3nccs3)=C2C#N)cc1` (configuration not stated), the IC50 is > 20 µM (inactive).

With `O=C(C1COc2ccccc2O1)N1CCc2ccccc21` (configuration not stated), the IC50 was 5.82 µM. On to `COC(C(=O)Nc1ccccc1F)c1ccccc1` (configuration not stated), for which the 50% inhibitory concentration (IC50) was 4.25 µM. Then `COC(C(=O)Nc1ccc(F)cc1F)c1ccccc1` (configuration not stated), with 0.969 µM; and `COc1ccc(/C=N/Nc2nc3ccccc3s2)cc1O`, with > 20 µM (inactive); and `Fc1ccc(NC(=S)N2N=CCC2c2ccccc2)cc1` (configuration not stated), with 3.38 µM. As for `O=C(COc1ccccc1Cl)NC(=O)NC1CCCC1`, the concentration for half-maximal inhibition (IC50) was 12.6 µM. Then `OC(c1ccccc1)c1nc2ccccc2s1` (configuration not stated), with 14.6 µM. On to `O=C(C1=NNCC1c1ccc(Cl)cc1)C1CO1` (configuration not stated), for which the 50% inhibitory concentration (IC50) is 7.86 µM. Then `C/C(Cl)=C/CN1C(=O)C2C3C=CC(C3)C2C1=O` (configuration not stated), with 6.41 µM; and `COc1ccc(-n2c(C)nn(CC3CC3)c2=O)cc1`, with 5.12 µM; and `O=C(Cc1c(F)cccc1Cl)Nc1ncc([N+](=O)[O-])s1`, with > 20 µM (inactive). For the compound `Cc1nc2oc3ccccc3c(=O)c2c(=O)n1Cc1ccccc1`, the half-maximal inhibitory concentration (IC50) was 14.4 µM. For the compound `O=C(Nc1nccs1)c1ccc(S(=O)(=O)N2CCCCC2)cc1`, the IC50 was > 20 µM (inactive). Consider `c1ccc(C2CC3CC4(CCCC4)N2O3)cc1` (configuration not stated), for which the IC50 is 3.81 µM. For `CC(C)c1ccc(O)c(NC(=O)c2cncc(Br)c2)c1` the value was > 20 µM (inactive); for `CCn1c([N+](=O)[O-])nc2c1c(=O)[nH]c(=O)n2C`, > 20 µM (inactive); for `Cc1nnsc1C(=O)NNc1c(Cl)cccc1Cl`, 5.04 µM. For `COC(C(=O)Nc1ccc(F)cc1)c1ccccc1` (configuration not stated) the value was 2.15 µM; for `O=C(Nc1nccs1)c1cc2c(s1)CCCCC2`, > 20 µM (inactive). For `COCCNS(=O)(=O)c1ccc(SC)cc1`, the IC50 was 9.06 µM. Take `Clc1cccc(Cl)c1Cn1ccc(C2CC2)n1`: the IC50 is 4.75 µM. Then `Cc1nn(Cc2c(F)cccc2Cl)c(C)c1[N+](=O)[O-]`, with > 20 µM (inactive); and `Cc1csc(SCC(=O)NC(=O)NC2CCCC2)n1`, with 12.2 µM. As to `COc1ccc(/C=N/Nc2ccccn2)cc1O`, the IC50 was 14.8 µM. For `COc1cc(/C=N/Nc2nc3ccccc3[nH]2)cc(Br)c1OCC(=O)N(C)C` the value was > 20 µM (inactive). Turning to `O=[N+]([O-])c1ncn(Cc2c(Cl)cccc2Cl)n1`, the IC50 is 13.1 µM.

Turning to `Cc1cc([N+](=O)[O-])nn1Cc1ccc(F)cc1`, the IC50 is 7.15 µM. Then `Cc1ccc(CC(=O)Nc2ncc([N+](=O)[O-])s2)cc1`, with > 20 µM (inactive); and `O=C(OC(C(=O)Nc1ccc([N+](=O)[O-])cc1Br)c1ccccc1)c1ccccc1` (configuration not stated), with > 20 µM (inactive).
